Results on seven compounds are retold here after PMC10974290, “Biocatalytic Synthesis of Coumarin S-Glycosides: Towards Non-Cytotoxic Probes for Biomedical Imaging and Sensing” (Molecules, 2024).

The subject of assay [1] is A-549 (lung carcinoma). As to the kind of experiment: MTT cell proliferation assay, A-549. The assay is classed as cell-based, human. To be noted: 72 h incubation, 95% confidence interval in parentheses. As for the experimental part:
(§1) To use these S-glycosidic compounds in cellulo, the potential impact of the glycosidic linkage nature on the anticancer activity was assessed. The S-glycoside derivatives and the 7-MC were tested against four human cancer cell lines and a healthy one, namely A549 (lung carcinoma), HS-683 (glioma cancer), MCF-7 (breast adenocarcinoma), SK-MEL-28 (melanoma skin cancer), and HaCaT (keratinocyte normal skin), using MTT (thiazolyl blue tetrazolium bromide, Sigma-Aldrich, St. Louis, MO, USA) assay, as previously described in the literature.
Cell proliferation of five distinct cell lines was evaluated using the colorimetric MTT (thiazolyl blue tetrazolium bromide, Sigma) assay. Human keratinocyte normal skin HaCaT was cultivated in DMEM supplemented with 4.5 g/L glucose, 2 mM L-glutamine, and 10% FBS. Cancer cell lines and their respective growth media were obtained from CLS Cell Line Service GmbH (Eppelheim, Germany). Specifically, human skin melanoma SK-MEL-28 and human brain glioma HS683 were cultivated in DMEM with identical supplements as HaCaT cells. The human lung carcinoma cell line A-549 was grown in DMEM/Ham’s F12 (1:1) medium supplemented with 2 mM L-glutamine and 5% FBS. Additionally, human breast adenoma carcinoma MCF-7 cells were sustained in EMEM supplemented with 2 mM L-glutamine, sodium pyruvate, non-essential amino acids (NEAAs), 10 µg/mL insulin human, and 10% FBS. The MTT assay relies on the reduction of the yellow product thiazolyl blue tetrazolium bromide (MTT) to formazan, a purple-blue product, by mitochondrial dehydrogenases in metabolically active cells. The number of living cells after incubation in the presence (or absence, control) of the tested molecules is directly proportional to the blue color, which was measured by spectrophotometry. To perform the assay, cells were initially seeded at a density of 2500 cells/mL in 96-well culture plates (Nunc™ Edge 2.0, Fisher) and allowed to adhere and proliferate over a 24-hour incubation period. Following this, the cells were treated with various concentrations of the tested compounds, which were previously prepared as serial dilutions and dissolved in 0.1% DMSO. […] Each concentration of the tested compounds underwent triplicate testing (n = 3), and cells were subsequently incubated for 72 h to allow for thorough evaluation. Following this incubation period, MTT reagent (5 mg/mL solution in PBS) was introduced to each well (10% v/v), and cells were further incubated for 4 h. Then, the culture medium was carefully removed, and the resulting blue formazan crystals were dissolved in 100 µL of 100% DMSO. Absorbance readings were taken at 540 nm, referencing a wavelength of 620 nm, using a spectrophotometer. In determining the IC50, the absorbance of serial dilutions of each cell line, treated under identical conditions but without the presence of the tested compounds, was measured.
A general note: Tetrazolium dyes change colour on reduction, which living cells bring about.

Assay [2] relates to MCF-7 (breast adenocarcinoma). As to the kind of experiment: MTT cell proliferation assay, MCF-7. To be noted: Homo sapiens, MCF7, 72 h incubation, 95% confidence interval in parentheses. It is filed as cell-based. As for the experimental part: as §1, with “literature. The selected reference drugs were 5-fluorouracil (5-FU) and etoposide.” for “literature.”
Cell proliferation of five distinct cell lines was evaluated using the colorimetric MTT (thiazolyl blue tetrazolium bromide, Sigma) assay. Human keratinocyte normal skin HaCaT was cultivated in DMEM supplemented with 4.5 g/L glucose, 2 mM L-glutamine, and 10% FBS. Cancer cell lines and their respective growth media were obtained from CLS Cell Line Service GmbH (Eppelheim, Germany). Specifically, human skin melanoma SK-MEL-28 and human brain glioma HS683 were cultivated in DMEM with identical supplements as HaCaT cells. The human lung carcinoma cell line A-549 was grown in DMEM/Ham’s F12 (1:1) medium supplemented with 2 mM L-glutamine and 5% FBS. Additionally, human breast adenoma carcinoma MCF-7 cells were sustained in EMEM supplemented with 2 mM L-glutamine, sodium pyruvate, non-essential amino acids (NEAAs), 10 µg/mL insulin human, and 10% FBS. The MTT assay relies on the reduction of the yellow product thiazolyl blue tetrazolium bromide (MTT) to formazan, a purple-blue product, by mitochondrial dehydrogenases in metabolically active cells. The number of living cells after incubation in the presence (or absence, control) of the tested molecules is directly proportional to the blue color, which was measured by spectrophotometry. To perform the assay, cells were initially seeded at a density of 2500 cells/mL in 96-well culture plates (Nunc™ Edge 2.0, Fisher) and allowed to adhere and proliferate over a 24-hour incubation period. Following this, the cells were treated with various concentrations of the tested compounds, which were previously prepared as serial dilutions and dissolved in 0.1% DMSO. These stable solutions guarantee the consistency of experimental conditions over extended periods. Each concentration of the tested compounds underwent triplicate testing (n = 3), and cells were subsequently incubated for 72 h to allow for thorough evaluation. Following this incubation period, MTT reagent (5 mg/mL solution in PBS) was introduced to each well (10% v/v), and cells were further incubated for 4 h. Then, the culture medium was carefully removed, and the resulting blue formazan crystals were dissolved in 100 µL of 100% DMSO. Absorbance readings were taken at 540 nm, referencing a wavelength of 620 nm, using a spectrophotometer. In determining the IC50, the absorbance of serial dilutions of each cell line, treated under identical conditions but without the presence of the tested compounds, was measured.

By IC50 is commonly meant the point on the concentration scale where inhibition reaches its midpoint. As for `Cc1cc(=O)oc2cc(S)ccc12` [Compound 7-MC, 7-mercapto-4-methylcoumarin, reference compound], the IC50 in assay [1] (Homo sapiens, A549, 72 h) is over 1 mM; in assay [2], over 1 mM.

Turning to `Cc1cc(=O)oc2cc(S[C@@H]3O[C@H](C(=O)O)[C@@H](O)[C@H](O)[C@H]3O)ccc12` [Compound S-1, 4-Methylumbellifer-7-yl 1-thio-β-D-glucopyranosiduronic acid], the IC50 in assay [1] (Homo sapiens, A549, 72 h) was over 1 mM; in assay [2], over 1 mM.

As for `Cc1cc(=O)oc2cc(S[C@@H]3OC[C@@H](O)[C@H](O)[C@H]3O)ccc12` [Compound S-2, 4-Methylumbellifer-7-yl 1-thio-β-D-xylopyranoside], the IC50 in assay [1] is 0.0748 mM; in assay [1] (Homo sapiens, A549, 72 h), 0.074 mM; in assay [2] it was 0.128 mM.

In the case of `Cc1cc(=O)oc2cc(S[C@@H]3O[C@H](CO)[C@@H](O)[C@H](O)[C@H]3O)ccc12` [Compound S-3, 4-Methylumbellifer-7-yl 1-thio-β-D-glucopyranoside], the IC50 was over 1 mM in assay [1] (Homo sapiens, A549, 72 h) and over 1 mM in assay [2].

As to `Cc1cc(=O)oc2cc(S[C@@H]3O[C@H](CO)[C@H](O)[C@H](O)[C@H]3O)ccc12` [Compound S-4, 4-Methylumbellifer-7-yl 1-thio-β-D-galactopyranoside], the IC50 in assay [1] (Homo sapiens, A549, 72 h) is over 1 mM; in assay [2], over 1 mM.

Regarding `Cc1cc(=O)oc2cc(S[C@@H]3O[C@H](C)[C@H](O)[C@H](O)[C@H]3O)ccc12` [Compound S-5, 4-Methylumbellifer-7-yl 1-thio-β-D-fucopyranoside], the IC50 in assay [1] (Homo sapiens, A549, 72 h) is over 1 mM; in assay [2] it was over 1 mM.

With `Cc1cc(=O)oc2cc(S[C@H]3O[C@H](CO)[C@H](O)[C@H](O)[C@H]3O)ccc12` [Compound S-6, 4-Methylumbellifer-7-yl 1-thio-α-D-galactopyranoside], the IC50 in assay [1] (Homo sapiens, A549, 72 h) was over 1 mM; in assay [2] it was over 1 mM.
